The record followed here is patent publication US12064513B2, “Cationic lipid exhibiting improved intracellular dynamics” (NOF CORPORATION, priority 2018, dated 2024).

The nature of this data set: Measurement of Liposomal pKa with TNS, empty LNP (Experimental Example 11). Format: physicochemical. The following applies: cationic lipid:DOPC:Chol:DMG-PEG2k=52.5:7.5:40:1.5. As for the experimental part: 20 mM Citrate buffer, sodium phosphate buffer and tris HCl buffer each containing NaCl at a final concentration of 150 mM and adjusted to various pHs within the range of pH 3.0-10.0 were prepared. LNP prepared in [Experimental Example 3], 1, was diluted with PBS to a lipid concentration of 0.5 mM. TNS (manufactured by Sigma) was diluted with ultrapure water to 0.6 mM. TNS solution (2 μL), various LNP solutions (12 μL), and buffers adjusted to various pHs (186 μL) were added to a black 96 well plate. The plate was protected from light and shaken at 400 rpm for 10 min. The fluorescence intensity (excitation: 321 nm/emission: 447 nm) was measured using a plate reader (manufactured by TECAN). The relative fluorescence intensity was calculated as a percentage, with the maximum value of the fluorescence intensity in each LNP being 100% and the minimum value being 0%. Furthermore, the pH at which the relative fluorescence intensity was 50% was taken as Liposomal pKa.
For the evaluation of Liposomal pKa, empty LNP not encapsulating nucleic acid was used. The empty LNP (cationic lipid:DOPC:Chol:DMG-PEG2k=52.5:7.5:40:1.5) was produced by performing particle preparation in the method described in [Experimental Example 10] without using a nucleic acid.
Liposomal pKa was calculated by the method described in [Experimental Example 3].

As to `CCCCCCCC/C=C\CCCCCCCC(=O)Oc1ccc(CC(=O)NCCC2CCN(CCSSCCN3CCC(CCNC(=O)Cc4ccc(OC(=O)CCCCCCC/C=C\CCCCCCCC)cc4)CC3)CC2)cc1` [O-Ph-amide-P4C2], the “Liposomal pKa” value is “improved pKa”.
